Values joined by “and” are separate entries in the source; they are usually repeats but may differ in a detail not shown here. Equal values may be shown once.
Experiments:
[1] = target: 5-HT2A; parameters: method as in PMID 30282913; settings: radioligand binding, average of at least two independent experiments; read-out: Ki 5-HT2A [3H]-Ketanserin; cited from earlier work
[2] = Food and water intake, rats fed standard diet only; assay type: in vivo, male Wistar rats; settings: 5 mg/kg b.w. i.p., vs control group
Method: The experiments were carried out on male Wistar rats. Their initial body weight was 210–230 g. The animals were housed in pairs in plastic cages in constant temperature facilities exposed to a light–dark cycle; water and food were available ad libitum. The control and experimental groups consisted of eight animals each. All experiments were conducted according to the guidelines of the Animal Use and Care Committee of the Jagiellonian University and were approved for realization (2013 and 2015, Poland; Permissions No 136/2013 and 258/2015).
The standard diet contained 100 g of feed—280 kcal.
Male Wistar rats (190–220 g) were housed in pair. The control group (standard diet + vehicle) received vehicle (1% Tween 80, i.p.), while the test group (standard diet + KMP-10 5 mg) was intraperitoneally injected with KMP-10 at the dose 5 mg/kg b.w./day dissolved in 1% Tween 80. The intakes of food and water were evaluated daily.

[3] = target: 5-HT7; parameters: method as in PMID 30282913; settings: radioligand binding, average of at least two independent experiments; read-out: Ki 5-HT7 [3H]-5-CT; cited from earlier work
[4] = parameters: method as in PMID 30282913; settings: overeating model, vs control group; cited from earlier work
[5] = target: T1, CYP3A4 (Homo sapiens, UniProt P08684); experiment: CYP3A4 P450-Glo drug-drug interaction assay; assay type: in vitro ADME
T1 construct: purchased Promega (Madison, WI, USA)
Method: (§1) The influence of triazine derivatives on two the most involved in drug metabolism CYP (cytochrome P450) isoforms CYP3A4 and CYP2D6 was also investigated.
(§2) The study was performed using the CYP3A4 P450-Glo^TM and CYP2D6 P450-Glo^TM commercial tests provided by Promega (Madison, WI, USA). The influence of compounds on CYPs activity was tested in white polystyrene, flat-bottom Nunc^TM MicroWell^TM 96-well microplates (Thermo Scientific, Waltham, MA USA), and the bioluminescence signal was measured with a microplate reader (EnSpire) in luminescence mode, as described previously. KMP-10 and DJ-18 were tested in triplicate in the range of 0.01–25 µM for both isoforms’ P450 cytochrome. KE and QD were used as the reference compounds for CYP3A4 and CYP2D6, respectively.

[6] = target: D2; parameters: method as in PMID 30282913; settings: radioligand binding, average of at least two independent experiments; read-out: Ki D2 [3H]-Raclopride; cited from earlier work
[7] = target: T2, CYP2D6 (Homo sapiens, UniProt P10635); experiment: CYP2D6 P450-Glo drug-drug interaction assay; assay type: in vitro ADME; settings: summary in comparison to SUVN-502
T2 construct: purchased Promega (Madison, WI, USA)
Method: as §1, §2

[8] = Novel object recognition (NOR) test; assay type: in vivo, male Wistar rats; settings: rats
Method: The experiments were performed on male Wistar rats (200–220 g) obtained from an accredited animal facility at the Jagiellonian University Medical College, Poland. The animals were housed in group of four in controlled environment (ambient temperature 21 ± 2 °C; relative humidity 50%–60%; 12-h light/dark cycles (lights on at 8:00). Standard laboratory food (LSM-B) and filtered water were freely available. Animals were randomly assigned to treatment groups. All the experiments were performed by two observers unaware of the studied treatment between 9:00 and 14:00 on separate groups of animals. All animals were used only once. Procedures involving animals and their care were conducted in accordance with current European Community and Polish legislation on animal experimentation. Additionally, all efforts were made to minimize animal suffering and to use only the number of animals necessary to produce reliable scientific data. […]
The animals explored the objects by looking, licking, sniffing or touching the object but not when leaning against, standing or sitting on the object. […] The exploration time of the objects was measured by blind experimenter. Based on exploration time (E) of the two objects during T2, the discrimination index (DI) was calculated according to the formula: DI = (EB − EA)/(EA + EB). […]

[9] = target: 5-HT6; parameters: method as in PMID 30282913; settings: radioligand binding, average of at least two independent experiments; read-out: Ki 5-HT6 [3H]-LSD; cited from earlier work
[10] = parameters: method as in PMID 30530073; settings: QikProp, Schrödinger Suite; cited from earlier work
[11] = Parallel artificial membrane permeability assay (PAMPA)

T1 sequence (P08684 whole entry): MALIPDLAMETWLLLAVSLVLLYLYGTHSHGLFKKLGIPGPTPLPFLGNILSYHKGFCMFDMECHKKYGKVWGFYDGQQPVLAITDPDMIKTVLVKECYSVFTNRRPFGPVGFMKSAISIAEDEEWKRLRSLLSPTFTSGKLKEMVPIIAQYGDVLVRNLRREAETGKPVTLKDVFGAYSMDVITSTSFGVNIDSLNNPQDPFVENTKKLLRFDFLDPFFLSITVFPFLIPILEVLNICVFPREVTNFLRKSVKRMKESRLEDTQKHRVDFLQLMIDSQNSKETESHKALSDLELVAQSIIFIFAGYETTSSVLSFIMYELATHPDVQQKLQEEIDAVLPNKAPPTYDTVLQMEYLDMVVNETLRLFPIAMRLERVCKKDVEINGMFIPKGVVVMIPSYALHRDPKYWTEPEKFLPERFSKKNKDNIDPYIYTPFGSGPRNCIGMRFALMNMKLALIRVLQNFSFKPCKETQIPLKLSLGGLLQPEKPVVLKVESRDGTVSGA
T2 sequence (P10635 whole entry): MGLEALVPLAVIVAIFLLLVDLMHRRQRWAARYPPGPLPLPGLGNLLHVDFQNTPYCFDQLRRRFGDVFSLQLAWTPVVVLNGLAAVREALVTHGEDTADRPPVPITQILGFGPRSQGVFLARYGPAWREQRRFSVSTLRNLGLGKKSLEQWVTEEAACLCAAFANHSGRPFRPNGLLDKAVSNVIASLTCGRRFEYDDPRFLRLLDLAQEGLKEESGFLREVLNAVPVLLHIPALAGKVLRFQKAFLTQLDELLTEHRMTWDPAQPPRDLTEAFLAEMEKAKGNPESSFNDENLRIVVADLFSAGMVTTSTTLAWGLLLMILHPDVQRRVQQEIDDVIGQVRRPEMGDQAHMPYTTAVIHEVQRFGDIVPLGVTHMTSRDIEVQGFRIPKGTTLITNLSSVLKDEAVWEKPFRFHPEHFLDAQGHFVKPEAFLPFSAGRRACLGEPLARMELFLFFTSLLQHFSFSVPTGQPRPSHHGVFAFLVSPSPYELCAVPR

In the case of CN1CCN(c2nc(N)nc(CN3C(=O)NC(C)(c4ccc5ccccc5c4)C3=O)n2)CC1 (stereo not drawn) [KMP-10, 3-((4-amino-6-(4-methylpiperazin-1-yl)-1,3,5-triazin-2-yl)methyl)-5-methyl-5-(naphthalen-2-yl)imidazolidine-2,4-dione], the Ki [1] is listed as 17.2 µM, the “Amount of calories consumed” value [2] is listed as “significantly reduced” and the Water intake [2] is listed as “significantly lower”. The Ki [3] was 0.514 µM, the “Increase of body mass” value [4] was “significantly lower increase” and the “Effect on CYP3A4 activity” value ([5]; highest used dose of 25 µM) was “slight stimulation effect”. The “Influence on CYP3A4” value ([5]; summary in comparison to SUVN-502) was “almost no influence”, the Ki [6] was 4.25 µM and the “Influence on CYP2D6” value [7] was “almost no influence”. For the same compound, the “Memory deficits induced by scopolamine in NOR test” value ([8]; full dose-range 0.3–3 mg/kg i.p.) was “significantly and dose-dependently reversed”, the “Memory impairment induced by MK-801 in NOR test, discrimination index” value ([8]; some activity at 1 mg/kg i.p.) was “did not reach a statistically significant level” and the Ki [9] was 0.087 µM. For the same compound, the QPlogBB [10] was −0.92, the Papp at 5 h, 200 µM ([11]; PAMPA, pH 7.4) was 37.6 ± 7.6 nm/s and the “PAMPA permeability, fold weaker than caffeine” value ([11]; vs caffeine) was ~ 4 fold and 4 fold.

From PMC6943527, “Are the Hydantoin-1,3,5-triazine 5-HT6R Ligands a Hope to a Find New Procognitive and Anti-Obesity Drug? Considerations Based on Primary In Vivo Assays and ADME-Tox Profile In Vitro” (Molecules, 2019)
